pIC50: −log10 of the molar value.
These compounds were tested against T1, HIV-integrase (Human immunodeficiency virus type 1 group M subtype B, UniProt P04585) (assay: in-vitro activity against HIV-integrase (HIV Integrase Inhibition, SPA bead assay)). Settings: Table 1; recombinant integrase, activity class.
T1 construct: Recombinant integrase (0.26 ng) was incubated with the beads
Type: biochemical
Method in brief: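 Recombinant integrase (0.26 ng) pre-bound for 90 min at 37 °C to biotinylated substrate DNA on streptavidin SPA beads, then washed. Inhibitors added with 33P-labelled target DNA; reaction stopped with 10 mM EDTA. Scintillation CPM taken as integration signal.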

Structure (SMILES) | pIC50
O=C(NCc1ccc(F)cc1-n1cncn1)c1nc2n(c(=O)c1O)CCC21CCCC1 [Example 87, N-[[4-fluoro-2-(1H-1,2,4-triazol-1-yl)phenyl]methyl]-6′,7′-dihydro-3′-hydroxy-4′-oxo-spiro[cyclopentane-1,8′(4′H)-pyrrolo[1,2-α]pyrimidine]-2′-carboxamide] | 8.00 to 9.00
CS(=O)(=O)c1cc(F)ccc1CNC(=O)c1nc2n(c(=O)c1O)CCOC21CCCC1 [Example 89, N-[[4-fluoro-2-(methylsulfonyl)phenyl]methyl]-6′,7′-dihydro-3′-hydroxy-4′-oxo-spiro[cyclopentane-1,9′(4′H)-pyrimido[2,1-c][1,4]oxazine]-2′-carboxamide] | 8.00 to 9.00
CN(C)S(=O)(=O)c1cc(F)ccc1CNC(=O)c1nc2n(c(=O)c1O)CCCC21CCC1 [Example 82, N-[[2-[(dimethylamino)sulfonyl]-4-fluorophenyl]methyl]-7′,8′-dihydro-3′-hydroxy-4′-oxo-spiro[cyclobutane-1,9′(6′H)-[4H]pyrido[1,2-α]pyrimidine]-2′-carboxamide] | 8.00 to 9.00
COc1ccc(CNC(=O)c2nc3n(c(=O)c2O)CCCC32CCC2)cc1 [Example 64, N-[(4-methoxyphenyl)methyl]-7′,8′-dihydro-3′-hydroxy-4′-oxo-spiro[cyclobutane-1,9′(6H)^1-[4H]pyrido[1,2-α]pyrimidine]-2′-carboxamide] | 7.00 to 8.00
O=C(NCc1cc(F)ccc1-n1cncn1)c1nc2n(c(=O)c1O)CCOC21CCCC1 [Example 29, N-[[5-fluoro-2-(1H-1,2,4-triazol-1-yl)phenyl]methyl]-6′,7′-dihydro-3′-hydroxy-4′-oxo-spiro[cyclopentane-1,9′(4′H)-pyrimido[2,1-c][1,4]oxazine]-2′-carboxamide] | 8.00 to 9.00
O=C(NCc1cccc(F)c1)c1nc2n(c(=O)c1O)CCCC21CCC1 [Example 67] | 8.00 to 9.00
Cc1ccc(CNC(=O)c2nc3n(c(=O)c2O)CCOC32CCOCC2)cc1C [Example 48, N-[(3,4-dimethylphenyl)methyl]-2,3,5,6,6′,7′-hexahydro-3′-hydroxy-4′-oxo-spiro[4H-pyran-4,9′(4′H)-pyrimido[2,1-c][1,4]oxazine]-2′-carboxamide] | 8.00 to 9.00
O=C(NCc1ccc(Cl)cc1)c1nc2n(c(=O)c1O)CCCC21CCC1 [Example 65, N-[(4-chlorophenyl)methyl]-7′,8′-dihydro-3′-hydroxy-4′-oxo-spiro[cyclobutane-1,9′(6′H)-[4H]pyrido[1,2-α]pyrimidine]-2′-carboxamide] | 8.00 to 9.00
CS(=O)(=O)c1cc(F)ccc1CNC(=O)c1nc2n(c(=O)c1O)CCOC21CCOC1 (centres unmarked) [Example 90, N-[[4-fluoro-2-(methylsulfonyl)phenyl]methyl]-4,5,6′,7′-tetrahydro-3′-hydroxy-4′-oxo-spiro[furan-3(2H),9′(4′H)-pyrimido[2,1-c][1,4]oxazine]-2′-carboxamide] | 7.00 to 8.00
CS(=O)(=O)c1cc(F)ccc1CNC(=O)c1nc2n(c(=O)c1O)CCC21CCCC1 [Example 85, N-[[4-fluoro-2-(methylsulfonyl)phenyl]methyl]-6′,7′-dihydro-3′-hydroxy-4′-oxo-spiro[cyclopentane-1,8′(4′H)-pyrrolo[1,2-α]pyrimidine]-2′-carboxamide] | 8.00 to 9.00
COc1ccc(CNC(=O)c2nc3n(c(=O)c2O)CCCC32CCC2)c(OC)c1 [Example 71, N-[(2,4-dimethoxyphenyl)methyl]-7′,8′-dihydro-3′-hydroxy-4′-oxo-spiro[cyclobutane-1,9′(6′H)-[4H]pyrido[1,2-α]pyrimidine]-2′-carboxamide] | 7.00 to 8.00
O=C(NCc1ccc(F)cc1-n1cncn1)c1nc2n(c(=O)c1O)CCCOC21CCC1 [Example 60, N-[[4-fluoro-2-(1 H-1,2,4-triazol-1-yl)phenyl]methyl]-7′,8′-dihydro-3′-hydroxy-4′-oxo-spiro[cyclobutane-1,10′(4′H)-[6H]pyrimido[2,1-c][1,4]oxazepine]-2′-carboxamide] | 8.00 to 9.00
CSc1cc(F)ccc1CNC(=O)c1nc2n(c(=O)c1O)CCOC21CCOC1 (centres unmarked) [Example 39, N-[[4-fluoro-2-(methylthio)phenyl]methyl]-4,5,6′,7′-tetrahydro-3′-hydroxy-4′-oxo-spiro[furan-3(2H),9′(4′H)-pyrimido[2,1-c][1,4]oxazine]-2′-carboxamide] | 8.00 to 9.00
O=C(NCc1ccc(F)cc1-n1nccn1)c1nc2n(c(=O)c1O)CCCC21CCCC1 [Example 6, N-[[4-fluoro-2-(2H-1,2,3-triazol-2-yl)phenyl]methyl]-7′,8′-dihydro-3′-hydroxy-4′-oxo-spiro[cyclopentane-1,9′(6′H)-[4H]pyrido[1,2-α]pyrimidine]-2′-carboxamide] | 8.00 to 9.00
CSc1cc(F)ccc1CNC(=O)c1nc2n(c(=O)c1O)CCOC21CCCC1 [Example 18, N-[[4-fluoro-2-(methylthio)phenyl]methyl]-6′,7′-dihydro-3′-hydroxy-4′-oxo-spiro[cyclopentane-1,9′(4′H)-pyrimido[2,1-c][1,4]oxazine]-2′-carboxamide] | 8.00 to 9.00
CC(NC(=O)c1nc2n(c(=O)c1O)CCCC21CCC1)c1ccc(F)cc1 (stereo not drawn) [Example 74, N-[1-(4-fluorophenyl)ethyl]-7′,8′-dihydro-3′-hydroxy-4′-oxo-spiro[cyclobutane-1,9′(6′H)-[4H]pyrido[1,2-α]pyrimidine]-2′-carboxamide] | 7.00 to 8.00
CN(C)S(=O)(=O)c1cc(F)ccc1CNC(=O)c1nc2n(c(=O)c1O)CCCOC21CCC1 [Example 61] | 7.00 to 8.00
O=C(NCc1ccc(F)cc1)c1nc2n(c(=O)c1O)CCOC21CCOCC1 [Example 40, N-[(4-fluorophenyl)methyl]-2,3,5,6,6′,7′-hexahydro-3′-hydroxy-4′-oxo-spiro[4H-pyran-4,9′(4′H)-pyrimido[2,1-c][1,4]oxazine]-2′-carboxamide] | 8.00 to 9.00
O=C(NCc1ccc(F)cc1N1CCCCS1(=O)=O)c1nc2n(c(=O)c1O)CCOC21CCC1 [Example 55, N-[[4-fluoro-2-(tetrahydro-1,1-dioxido-2H-1,2-thiazin-2-yl)phenyl]methyl]-6′,7′-dihydro-3′-hydroxy-4′-oxo-spiro[cyclobutane-1,9′(4′H)-pyrimido[2,1-c][1,4]oxazine]-2′-carboxamide] | 8.00 to 9.00
O=C(NCc1ccc(F)cc1N1CCCCS1(=O)=O)c1nc2n(c(=O)c1O)CCOC21CCOCC1 [Example 42, N-[[4-fluoro-2-(tetrahydro-1,1-dioxido-2H-1,2-thiazin-2-yl)phenyl]methyl]-2,3,5,6,6′,7′-hexahydro-3′-hydroxy-4′-oxo-spiro[4H-pyran-4,9′(4′H)-pyrimido[2,1-c][1,4]oxazine]-2′-carboxamide] | 8.00 to 9.00
CN(C)S(=O)(=O)c1cc(F)ccc1CNC(=O)c1nc2n(c(=O)c1O)CCOC21CCOCC1 [Example 47, N-[[2-[(dimethylamino)sulfonyl]-4-fluorophenyl]methyl]-2,3,5,6,6′,7′-hexahydro-3′-hydroxy-4′-oxo-spiro[4H-pyran-4,9′(4′H)-pyrimido[2,1-c][1,4]oxazine]-2′-carboxamide] | 7.00 to 8.00
O=C(NCc1ccccc1N1CCCCS1(=O)=O)c1nc2n(c(=O)c1O)CCCC21CCCC1 [Example 8, N-[[2-(tetrahydro-1,1-dioxido-2H-1,2-thiazin-2-yl)phenyl]methyl]-7′,8′-dihydro-3′-hydroxy-4′-oxo-spiro[cyclopentane-1,9′(6′H)-[4H]pyrido[1,2-α]pyrimidine]-2′-carboxamide] | 7.00 to 8.00
Cc1ccc(CNC(=O)c2nc3n(c(=O)c2O)CCOC32CCCC2)cc1F [Example 27, N-[(3-fluoro-4-methylphenyl)methyl]-6′,7′-dihydro-3′-hydroxy-4′-oxo-spiro[cyclopentane-1,9′(4′H)-pyrimido[2,1-c][1,4]oxazine]-2′-carboxamide] | 8.00 to 9.00
O=C(NCc1ccc(F)cc1)c1nc2n(c(=O)c1O)CCCC21CCC1 [Example 66, N-[(4-fluorophenyl)methyl]-7′,8′-dihydro-3′-hydroxy-4′-oxo-spiro[cyclobutane-1,9′(6′H)-[4H]pyrido[1,2-α]pyrimidine]-2′-carboxamide] | 8.00 to 9.00
Cc1ccc(CNC(=O)c2nc3n(c(=O)c2O)CCCC32CCC2)cc1 [Example 63, N-[(4-methylphenyl)methyl]-7′,8′-dihydro-3′-hydroxy-4′-oxo-spiro[cyclobutane-1,9′(6′H)-[4H]pyrido[1,2-α]pyrimidine]-2′-carboxamide] | 7.00 to 8.00

Same assay, conditions: Table 1a; recombinant integrase, activity class

Structure (SMILES) | pIC50
Cc1nc(C)n(-c2cc(F)ccc2CNC(=O)c2nc3n(c(=O)c2O)CCOC32CCCC2)n1 [Example 130, Spiro[cyclopentane-1,9′(4′H)-pyrimido[2,1-c][1,4]oxazine]-2′-carboxamide, N-[[2-(3,5-dimethyl-1H-1,2,4-triazol-1-yl)-4-fluorophenyl]methyl]-6′,7′-dihydro-3′-hydroxy-4′-oxo-] | 8.00 to 9.00
O=C(NCc1ccc(F)cc1N1CCOC1=O)c1nc2n(c(=O)c1O)CCOC21CCC1 [Example 105, Spiro[cyclobutane-1,9′(4′H)-pyrimido[2,1-c][1,4]oxazine]-2′-carboxamide, N-[[4-fluoro-2-(2-oxo-3-oxazolidinyl)phenyl]methyl]-6′,7′-dihydro-3′-hydroxy-4′-oxo-] | 8.00 to 9.00
Cc1nnn(-c2cc(F)ccc2CNC(=O)c2nc3n(c(=O)c2O)CCOC32CCC2)c1C [Example 102, Spiro[cyclobutane-1,9′(4′H)-pyrimido[2,1-c][1,4]oxazine]-2′-carboxamide, N-[[2-(4,5-dimethyl-1H-1,2,3-triazol-1-yl)-4-fluorophenyl]methyl]-6′,7′-dihydro-3′-hydroxy-4′-oxo-] | 7.00 to 8.00
O=C(NCc1ccc(F)cc1-n1ccnn1)c1nc2n(c(=O)c1O)CCOC21CCCC1 [Example 113, Spiro[cyclopentane-1,9′(4′H)-pyrimido[2,1-c][1,4]oxazine]-2′-carboxamide, N-[[4-fluoro-2-(1H-1,2,3-triazol-1-yl)phenyl]methyl]-6′,7′-dihydro-3′-hydroxy-4′-oxo-] | 8.00 to 9.00
